Results published in patent publication US20100298141A1, “SUBSTITUTED PYRIDINE N-OXIDE HERBICIDES” (E. I. DU PONT DE NEMOURS AND COMPANY, priority 2007, published 2010).

Key:
[1] = tested on: duck salad; assay: Test C flooded paddy test; assay type: in vivo, Heteranthera limosa; conditions: Flood
Outline: (§1)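 In-water treatment: compound dosed into 3 cm flood over soil, water level unchanged throughout. Controls run alongside; visual assessment at day 13–15.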

[2] = tested on: rice; assay: Test C flooded paddy test; assay type: in vivo, Oryza sativa; conditions: Flood
Outline: as §1

[3] = tested on: morningglory; assay: Test A pre-/postemergence greenhouse test; assay type: in vivo, Ipomoea spp.; conditions: for Plant response rating, Morningglory: 0 to 100 scale where 0 is no effect and 100 is complete control; for Morningglory plant response rating: 0 to 100 scale
Outline: (§2)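 Greenhouse herbicide screen, pre- and postemergence in parallel. Soil: loam plus sand. Formulation: non-phytotoxic solvent mix with surfactant. Postemergence stage: one to two leaves, 2–10 cm height. Evaluation: visual injury, compared with untreated controls, about 10 days after treatment.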

[4] = tested on: corn; assay: Test A pre-/postemergence greenhouse test; assay type: in vivo, Zea mays; conditions: for Plant response rating, Corn: 0 to 100 scale where 0 is no effect and 100 is complete control; for Corn plant response rating: 0 to 100 scale
Outline: as §2

[5] = tested on: crabgrass; assay: Test A pre-/postemergence greenhouse test; assay type: in vivo, Digitaria sanguinalis; conditions: for Plant response rating, Crabgrass, Large: 0 to 100 scale where 0 is no effect and 100 is complete control; for Crabgrass, Large plant response rating: 0 to 100 scale
Outline: as §2

[6] = tested on: wheat; assay: Test A pre-/postemergence greenhouse test; assay type: in vivo, Triticum aestivum; conditions: for Plant response rating, Wheat: 0 to 100 scale where 0 is no effect and 100 is complete control; for Wheat plant response rating: 0 to 100 scale
Outline: as §2

[7] = tested on: barnyardgrass; assay: Test C flooded paddy test; assay type: in vivo, Echinochloa crus-galli; conditions: Flood
Outline: as §1

[8] = tested on: barnyardgrass; assay: Test A pre-/postemergence greenhouse test; assay type: in vivo, Echinochloa crus-galli; conditions: for Plant response rating, Barnyardgrass: 0 to 100 scale where 0 is no effect and 100 is complete control; for Barnyardgrass plant response rating: 0 to 100 scale
Outline: as §2

[9] = tested on: redroot pigweed; assay: Test A pre-/postemergence greenhouse test; assay type: in vivo, Amaranthus retroflexus; conditions: for Plant response rating, Pigweed: 0 to 100 scale where 0 is no effect and 100 is complete control; for Pigweed plant response rating: 0 to 100 scale
Outline: as §2

[10] = tested on: umbrella sedge; assay: Test C flooded paddy test; assay type: in vivo, Cyperus difformis; conditions: Flood
Outline: as §1

[11] = tested on: velvetleaf; assay: Test A pre-/postemergence greenhouse test; assay type: in vivo, Abutilon theophrasti; conditions: for Plant response rating, Velvetleaf: 0 to 100 scale where 0 is no effect and 100 is complete control; for Velvetleaf plant response rating: 0 to 100 scale
Outline: as §2

[12] = tested on: giant foxtail; assay: Test A pre-/postemergence greenhouse test; assay type: in vivo, Setaria faberi; conditions: for Plant response rating, Foxtail, Giant: 0 to 100 scale where 0 is no effect and 100 is complete control; for Foxtail, Giant plant response rating: 0 to 100 scale
Outline: as §2

[13] = 62 g ai/ha, scale 0 to 100 (0 no effect, 100 complete control)
[14] = 250 g ai/ha, scale 0 to 100, 0 no effect, 100 complete control, 13 to 15 days
[15] = Postemergence, 500 g ai/ha, 0 is no effect, 100 is complete control
[16] = Preemergence, 125 g ai/ha, 0 no effect, 100 complete control
[17] = Preemergence, 500 g ai/ha, 0 no effect, 100 complete control
[18] = 31 g ai/ha, scale 0 to 100 (0 no effect, 100 complete control)
[19] = 62 g ai/ha, scale 0 to 100, 0 no effect, 100 complete control, 13 to 15 days
[20] = 125 g ai/ha, scale 0 to 100, 0 no effect, 100 complete control, 13 to 15 days
[21] = Postemergence, 125 g ai/ha, 0 is no effect, 100 is complete control

## Cn1nc(C(F)(F)C(F)(F)F)c(CS(=O)(=O)c2ccc(Cl)c[n+]2[O-])c1OCC(F)(F)F [Compound 100]
[1]; [13]
  Plant response rating, Ducksalad: 0
[1]; [14]
  Plant response rating, Ducksalad: 30
[2]; [13]
  Plant response rating, Rice: 0
[2]; [14]
  Plant response rating, Rice: 0
[3]; Postemergence, 125 g ai/ha
  Plant response rating, Morningglory: 0
[3]; [15]
  Morningglory plant response rating: 20
[3]; [16]
  Morningglory plant response rating: 0
[3]; [17]
  Morningglory plant response rating: 10
[4]; Postemergence, 125 g ai/ha
  Plant response rating, Corn: 0
[4]; [15]
  Corn plant response rating: 0
[4]; [16]
  Corn plant response rating: 0
[4]; [17]
  Corn plant response rating: 0
[5]; Postemergence, 125 g ai/ha
  Plant response rating, Crabgrass, Large: 40
[5]; [15]
  Crabgrass, Large plant response rating: 80
[5]; [16]
  Crabgrass, Large plant response rating: 40
[5]; [17]
  Crabgrass, Large plant response rating: 80
[6]; Postemergence, 125 g ai/ha
  Plant response rating, Wheat: 0
[6]; [15]
  Wheat plant response rating: 0
[6]; [16]
  Wheat plant response rating: 0
[6]; [17]
  Wheat plant response rating: 10
[7]; [13]
  Plant response rating, Barnyardgrass: 0
[7]; [14]
  Plant response rating, Barnyardgrass: 0
[8]; Postemergence, 125 g ai/ha
  Plant response rating, Barnyardgrass: 40
[8]; [15]
  Barnyardgrass plant response rating: 60
[8]; [16]
  Barnyardgrass plant response rating: 0
[8]; [17]
  Barnyardgrass plant response rating: 90
[9]; Postemergence, 125 g ai/ha
  Plant response rating, Pigweed: 0
[9]; [15]
  Pigweed plant response rating: 60
[9]; [16]
  Pigweed plant response rating: 60
[9]; [17]
  Pigweed plant response rating: 80
[10]; [13]
  Plant response rating, Sedge, Umbrella: 0
[10]; [14]
  Plant response rating, Sedge, Umbrella: 0
[11]; Postemergence, 125 g ai/ha
  Plant response rating, Velvetleaf: 0
[11]; [15]
  Velvetleaf plant response rating: 20
[11]; [16]
  Velvetleaf plant response rating: 0
[11]; [17]
  Velvetleaf plant response rating: 50
[12]; Postemergence, 125 g ai/ha
  Plant response rating, Foxtail, Giant: 50
[12]; [15]
  Foxtail, Giant plant response rating: 90
[12]; [16]
  Foxtail, Giant plant response rating: 60
[12]; [17]
  Foxtail, Giant plant response rating: 90

## Cn1nc(C(F)(F)F)c(CS(=O)(=O)c2cc(F)cc[n+]2[O-])c1Cl [Compound 41]
[1]; [18]
  Plant response rating, Ducksalad: 75
[1]; [19]
  Plant response rating, Ducksalad: 75
[1]; [20]
  Plant response rating, Ducksalad: 75
[1]; [14]
  Plant response rating, Ducksalad: 80
[2]; [18]
  Plant response rating, Rice: 0
[2]; [19]
  Plant response rating, Rice: 0
[2]; [20]
  Plant response rating, Rice: 0
[2]; [14]
  Plant response rating, Rice: 15
[3]; [21]
  Morningglory plant response rating: 0
[3]; [15]
  Morningglory plant response rating: 0
[3]; [16]
  Morningglory plant response rating: 0
[3]; Preemergence, 500 g ai/ha
  Plant response rating, Morningglory: 20
[4]; [21]
  Corn plant response rating: 0
[4]; [15]
  Corn plant response rating: 0
[4]; [16]
  Corn plant response rating: 0
[4]; Preemergence, 500 g ai/ha
  Plant response rating, Corn: 30
[5]; [21]
  Crabgrass, Large plant response rating: 0
[5]; [15]
  Crabgrass, Large plant response rating: 0
[5]; [16]
  Crabgrass, Large plant response rating: 0
[5]; Preemergence, 500 g ai/ha
  Plant response rating, Crabgrass, Large: 0
[6]; [21]
  Wheat plant response rating: 0
[6]; [15]
  Wheat plant response rating: 0
[6]; [16]
  Wheat plant response rating: 0
[6]; Preemergence, 500 g ai/ha
  Plant response rating, Wheat: 0
[7]; [18]
  Plant response rating, Barnyardgrass: 0
[7]; [19]
  Plant response rating, Barnyardgrass: 0
[7]; [20]
  Plant response rating, Barnyardgrass: 0
[7]; [14]
  Plant response rating, Barnyardgrass: 0
[8]; [21]
  Barnyardgrass plant response rating: 0
[8]; [15]
  Barnyardgrass plant response rating: 0
[8]; [16]
  Barnyardgrass plant response rating: 0
[8]; Preemergence, 500 g ai/ha
  Plant response rating, Barnyardgrass: 60
[9]; [21]
  Pigweed plant response rating: 0
[9]; [15]
  Pigweed plant response rating: 0
[9]; [16]
  Pigweed plant response rating: 0
[9]; Preemergence, 500 g ai/ha
  Plant response rating, Pigweed: 0
[10]; [18]
  Plant response rating, Sedge, Umbrella: 80
[10]; [19]
  Plant response rating, Sedge, Umbrella: 80
[10]; [20]
  Plant response rating, Sedge, Umbrella: 80
[10]; [14]
  Plant response rating, Sedge, Umbrella: 80
[11]; [21]
  Velvetleaf plant response rating: 0
[11]; [15]
  Velvetleaf plant response rating: 0
[11]; [16]
  Velvetleaf plant response rating: 0
[11]; Preemergence, 500 g ai/ha
  Plant response rating, Velvetleaf: 0
[12]; [21]
  Foxtail, Giant plant response rating: 0
[12]; [15]
  Foxtail, Giant plant response rating: 0
[12]; [16]
  Foxtail, Giant plant response rating: 0
[12]; Preemergence, 500 g ai/ha
  Plant response rating, Foxtail, Giant: 0
